Measured values published in paper PMC8752738, “A propolis-derived small molecule ameliorates metabolic syndrome in obese mice by targeting the CREB/CRTC2 transcriptional complex” (Nature Communications, 2022).

Tests used:
[1] = target: T1, CREB / CRTC3 interaction (Homo sapiens, UniProt P16220); experiment: Co-immunoprecipitation of GFP-CRTC3 by MYC-CREB, HEK293T; assay type: cell-based; settings: overexpression HEK293T cells, APC 10 μM
T1 construct: expressed in transfected cells; host or cells: HEK293T
T1 sequence (P16220 whole entry): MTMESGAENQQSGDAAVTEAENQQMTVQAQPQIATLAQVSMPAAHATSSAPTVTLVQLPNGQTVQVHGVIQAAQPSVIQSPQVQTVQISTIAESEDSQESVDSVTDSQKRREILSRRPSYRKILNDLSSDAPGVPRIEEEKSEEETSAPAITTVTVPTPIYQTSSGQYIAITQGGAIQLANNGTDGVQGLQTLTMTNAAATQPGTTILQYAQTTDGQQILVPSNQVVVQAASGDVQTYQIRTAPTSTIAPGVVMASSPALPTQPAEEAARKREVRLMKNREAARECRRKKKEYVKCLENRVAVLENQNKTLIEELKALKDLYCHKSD
Description: 1 Supplementary Figure 2.
2 a) Immunoblot of HA-P300 recovered from HEK293T cell lysate using GST-CREB beads. APC
3 (10 μM) was incubated with cells for 1-h before FKS (10 nM) stimulation and was included in the
4 following pull-down mixtures (n=3). One of two independent experiments presented here.
5 b) Immunoblot for recovered GFP-CRTC1 or (c) GFP-CRTC3 immunoprecipitated by MYC-CREB
6 from overexpression HEK293T cell line. APC (10 μM) was incubated with cells for 1-h before FKS
7 (10 nM) stimulation and was included in the following pull-down mixtures. One of two independent
8 experiments presented here.
9 d) SPR sonogram traces of APC binding with HIS-CREB proteins immobilized to NTA-chip. The
10 concentration series of APC was as indicated.
11 e) SPR sonogram traces of APC flowing through HIS-CRTC2-S171A proteins immobilized on
12 NTA-chip. The concentration of APC was as indicated.
13 f) The luciferase enzymatic activity of HEK293T incubated with APC. Cells over-expressed
14 luciferase CRE-Luc reporter and were stimulated by FSK (10 nM) for 5-h before lysis, which was
15 then incubated with APC (concentration indicated) for 30 min before luciferase activity determination
16 (n=3 per treatment). Data are represented as mean ± SEM. *, p < 0.05; **, p < 0.01; p values were
17 determined by one-way ANOVA followed Dunnett’s multiple comparisons test. […]

[2] = test system: mTORC1; experiment: Immunoblotting of mTORC1 signaling, mature SREBP1 and FASN in primary hepatocytes; assay type: cell-based, mouse; settings: glucagon-insulin-treated primary hepatocytes
Description: Fi g u re B . Immunoblotting analysis of phosphorated or total protein amounts of S6K , mature SREBP -1and FASN in primary hepatocyt es . The cells wer epretreated with APC (10 μ M) for 2 hours , exposed to glucagon (100 nM) for 4 hours, and t hen followed by12- hour insulin (100 nM) incubationbefore collection.
(1 picture or pasted object on this page, not shown here) […]
I have a few more points that have to be addressed in the revised work.
1. In Figure B, it appeared that APC-induced p-S6K level was rather inhibited by glu/ins treatment (lane 3 vs lane 4). Is it significant?
Response: We agree wit h Reviewer1’ s comments that the western blotting band of p-S6K level of lane 4 seems weaker than that of lane3 in Figure B. However, we performed the densitometry analysis of all the results from three independent […]
independent of its effect on reducing SREBP-1c expression and the subsequent repression of lipogenesis. The authors should simply run western blot for mTORC1 signaling by utilizing the existing samples.
Response: We are grat eful for Reviewer1’s com ments. […]
to glucagon (100 nM) for 4 hours, and then followed by 12- hour insulin (100 nM) incubation before collection. […] Data are represented as mean ± SEM. *, p < 0.05; **, p < 0.01; p values were determined by two- way ANOVA followed Bonferroni’s multiple comparisons test. […]

[3] = target: T2, CRTC2 / SEC31A interaction (Mus musculus, UniProt Q3U182+Q3UPL0); experiment: Co-immunoprecipitation CRTC2 / SEC31A; assay type: biochemical; settings: APC 10 μM in IP mixture
T2 construct: expressed in transfected cells; host or cells: HEK293
T2 sequence (Q3U182 whole entry): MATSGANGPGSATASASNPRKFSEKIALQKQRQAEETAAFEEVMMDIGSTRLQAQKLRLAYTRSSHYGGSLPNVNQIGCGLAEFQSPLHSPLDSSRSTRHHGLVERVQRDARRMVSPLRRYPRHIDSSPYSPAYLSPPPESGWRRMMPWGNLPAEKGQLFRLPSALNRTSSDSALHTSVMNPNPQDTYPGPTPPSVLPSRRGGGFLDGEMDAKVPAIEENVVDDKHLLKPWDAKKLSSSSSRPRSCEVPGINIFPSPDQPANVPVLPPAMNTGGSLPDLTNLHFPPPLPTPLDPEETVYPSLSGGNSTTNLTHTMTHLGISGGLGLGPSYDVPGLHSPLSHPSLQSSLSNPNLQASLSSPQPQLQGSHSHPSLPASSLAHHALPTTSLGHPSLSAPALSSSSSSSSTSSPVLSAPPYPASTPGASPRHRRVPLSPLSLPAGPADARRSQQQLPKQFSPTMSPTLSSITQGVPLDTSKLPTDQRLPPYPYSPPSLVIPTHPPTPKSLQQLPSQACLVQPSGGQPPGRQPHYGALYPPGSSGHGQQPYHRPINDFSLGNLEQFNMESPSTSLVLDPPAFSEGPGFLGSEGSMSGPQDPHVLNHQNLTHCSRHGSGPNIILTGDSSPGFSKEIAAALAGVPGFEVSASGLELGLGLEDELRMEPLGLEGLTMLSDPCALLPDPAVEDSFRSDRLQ
T2 sequence (Q3UPL0 whole entry): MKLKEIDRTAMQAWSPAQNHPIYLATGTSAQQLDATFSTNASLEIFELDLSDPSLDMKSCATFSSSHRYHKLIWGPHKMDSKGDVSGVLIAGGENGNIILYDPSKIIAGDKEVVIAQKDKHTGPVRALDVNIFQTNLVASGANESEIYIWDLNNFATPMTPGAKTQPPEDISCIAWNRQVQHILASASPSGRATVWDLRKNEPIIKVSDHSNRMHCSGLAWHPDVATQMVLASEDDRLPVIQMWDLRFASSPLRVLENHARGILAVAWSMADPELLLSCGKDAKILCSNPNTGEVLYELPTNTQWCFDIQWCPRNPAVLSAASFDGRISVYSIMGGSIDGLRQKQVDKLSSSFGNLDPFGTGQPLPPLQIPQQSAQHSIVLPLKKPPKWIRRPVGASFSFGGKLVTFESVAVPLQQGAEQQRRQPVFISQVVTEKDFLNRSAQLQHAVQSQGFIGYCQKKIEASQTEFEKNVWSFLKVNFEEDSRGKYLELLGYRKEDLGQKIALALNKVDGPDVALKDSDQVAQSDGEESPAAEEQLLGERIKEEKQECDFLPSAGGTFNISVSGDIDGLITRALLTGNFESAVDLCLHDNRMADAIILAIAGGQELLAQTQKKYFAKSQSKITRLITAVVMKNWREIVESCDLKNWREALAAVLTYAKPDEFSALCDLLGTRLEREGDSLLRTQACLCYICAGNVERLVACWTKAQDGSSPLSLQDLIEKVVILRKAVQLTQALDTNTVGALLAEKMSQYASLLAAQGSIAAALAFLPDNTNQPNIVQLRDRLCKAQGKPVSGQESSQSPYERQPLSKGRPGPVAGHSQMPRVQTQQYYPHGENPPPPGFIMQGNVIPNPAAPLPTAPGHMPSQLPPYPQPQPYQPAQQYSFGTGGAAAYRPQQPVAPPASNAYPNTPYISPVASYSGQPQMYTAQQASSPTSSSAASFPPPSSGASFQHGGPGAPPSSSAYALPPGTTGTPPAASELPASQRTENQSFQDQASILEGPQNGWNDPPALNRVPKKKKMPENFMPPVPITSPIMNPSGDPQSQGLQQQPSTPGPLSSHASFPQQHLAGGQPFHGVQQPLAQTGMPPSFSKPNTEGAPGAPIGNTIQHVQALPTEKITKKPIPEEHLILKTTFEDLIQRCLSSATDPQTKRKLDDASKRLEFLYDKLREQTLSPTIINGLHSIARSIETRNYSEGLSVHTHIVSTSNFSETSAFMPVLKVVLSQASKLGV
Description: 1 b) Immunoprecipitation of SEC31A from HEK293 cell lysates with overexpressed […] or
2 FLAG-Crtc2-WT. APC (10 μM) was added to the IP mixture overnight. One of two independent
3 experiments is shown here. […]
5 administered MET and APC as in (a). Data are represented as mean ± SEM (n=6 per group). *,
6 p < 0.05; **, p < 0.01; p values were determined by two-way ANOVA followed Bonferroni’s multiple
7 comparisons test. Source data for this figure are provided as a Source data file.

[4] = target: T3, luciferase (Photinus pyralis, UniProt P08659); experiment: Luciferase enzymatic assay; assay type: biochemical; settings: lysate of HEK293T cells expressing CRE-Luc, 30 min
T3 construct: expressed in transfected cells; host or cells: HEK293T (lysate incubated with compound)
T3 sequence (P08659 whole entry): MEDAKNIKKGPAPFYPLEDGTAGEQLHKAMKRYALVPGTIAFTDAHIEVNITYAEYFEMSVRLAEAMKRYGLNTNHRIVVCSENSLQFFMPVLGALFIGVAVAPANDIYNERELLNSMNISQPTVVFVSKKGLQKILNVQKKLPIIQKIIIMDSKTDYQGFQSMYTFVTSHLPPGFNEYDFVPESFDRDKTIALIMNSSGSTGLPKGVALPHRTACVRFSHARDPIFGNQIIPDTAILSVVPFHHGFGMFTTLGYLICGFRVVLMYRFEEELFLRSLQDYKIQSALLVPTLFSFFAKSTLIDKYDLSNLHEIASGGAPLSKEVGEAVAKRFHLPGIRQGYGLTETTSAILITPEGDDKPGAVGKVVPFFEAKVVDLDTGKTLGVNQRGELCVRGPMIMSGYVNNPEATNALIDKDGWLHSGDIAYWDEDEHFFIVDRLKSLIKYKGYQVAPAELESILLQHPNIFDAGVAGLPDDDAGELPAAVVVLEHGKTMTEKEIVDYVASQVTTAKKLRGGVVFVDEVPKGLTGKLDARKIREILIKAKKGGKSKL
Description: HEK293T cells (4 × 10^5 per well of 24-well-plate) were transfected with plasmids expressing CRE-luciferase reporter (50 ng) together with RSV-β-gal (20 ng) by PEI-media overnight and induced by FSK (forskolin 10 nM) for 6-h. The cells were then collected in the lysis buffer (25 mM Gly-gly, 15 mM MgSO4, 4 mM EGTA, 1% V/V Triton X-100, 1 mM DTT, pH 7.8), mixed with an equal volume of luciferase substrate buffer (25 mM Gly-gly, 15 mM MgSO4, 4 mM EGTA, 250 mM potassium phosphate, 2.5 mM ATP, 2 mM DTT, 5 mg/mL luciferin, pH 7.8), and subjected to EnVision Multimode Plate Reader (Perkin/Elmer) to determine generated fluorescent signals.
13 d) Luciferase enzyme activity. The luciferase enzymatic activity from HEK293T cells incubated
The cells ectopically expressed luciferase (CRE-Luc) and were stimulated with FSK (10
15 nM) for 5 h before lysis, and then incubated with various concentrations of propolis for 30 min before
16 luciferase activity determination. One of two independent experiments presented here. Data are
17 represented as mean ± SEM (n=3 per treatment). ns, p > 0.05; *, p < 0.05; **, p < 0.01; p values were
18 determined by one-way ANOVA followed Dunnett’s multiple comparisons test.
13 f) The luciferase enzymatic activity of HEK293T incubated with APC. Cells over-expressed […]

## CC(C)=CCc1cc(C=CC(=O)O)cc(CC=C(C)C)c1O [APC, 3,5-diprenyl-4-hydroxycinnamic acid]
[1]
  interaction of CREB and CRTC3: attenuated
[2]
  mTORC1 activity: increased
  protein amounts of mature SREBP1 and fat acid synthase: decreased
[3]
  protein interaction between CRTC2 and SEC31A: no impact
[4]
  effect on luciferase enzymatic activity: no effect
